# Results reported in ChEMBL document CHEMBL4330066, “Carbohydrate-naphthalene diimide conjugates as potential antiparasitic drugs: Synthesis, evaluation and structure-activity studies” (Eur J Med Chem, 2019).
# Assays:
# Trypanosoma brucei = test: Trypanocidal activity against Trypanosoma brucei Lister 427, antigenic type MiTat 1.2, clone 221a after 72 hrs by alamarBlue assay; assay type: functional, organism-based; conditions: Lister 427, 72 h
# MRC5 = test: Cytotoxicity against human MRC5 cells assessed as reduction in cell viability after 48 hrs by MTT assay; assay type: cell-based; conditions: MRC5, 48 h
# [1] = Selectivity index, ratio of IC50 for human MRC5 cells to IC50 for Trypanosoma brucei Lister 427, antigenic type MiTat 1.2, clone 221a; assay type: toxicity; conditions: MRC5 cells versus Trypanosoma brucei Lister 427, read-out: Ratio IC50
# Leishmania major [2] = test: Leishmaniacidal activity against Leishmania major MHOM/IL/80/Friedlin promastigotes after 72 hrs by MTT assay; assay type: functional, organism-based
# Leishmania major [3] = test: Leishmaniacidal activity against Leishmania major MHOM/IL/80/Friedlin amastigotes infected in human THP1 cells after 72 hrs by luciferase luminescence assay; assay type: functional, organism-based; conditions: THP-1, 72 h
# [4] = Cytotoxicity against human THP1 cells; assay type: cell-based; conditions: THP-1 cells, read-out: TC50 (the source's name)
# [5] = Selectivity index, ratio of TC50 for human THP1 cells to IC50 for Leishmania major MHOM/IL/80/Friedlin amastigotes; assay type: toxicity; conditions: THP1 cells versus Leishmania major amastigotes, read-out: Selectivity Index
SMILES,IC50 (Trypanosoma brucei) [µM],IC50 (MRC5) [µM],selectivity ratio [1],IC50 (Leishmania major [2]) [µM],IC50 (Leishmania major [3]) [µM],CC50 [4] [µM],selectivity ratio [5]
CN(C)CCCN1C(=O)c2ccc3c4c(c(NCCCn5cc(CCO[C@@H]6O[C@H](CO)[C@@H](O[C@H]7O[C@H](CO)[C@@H](O)[C@H](O)[C@H]7O)[C@H](O)[C@H]6O)nn5)cc(c24)C1=O)C(=O)N(CCCN(C)C)C3=O,0.13,0.22,1.7,4.68,0.43,1.52,3.5
CN(C)CCCN1C(=O)c2ccc3c4c(c(NCCCn5cc(COCCOCCOCCO[C@@H]6O[C@H](CO)[C@@H](O[C@H]7O[C@H](CO)[C@@H](O)[C@H](O)[C@H]7O)[C@H](O)[C@H]6O)nn5)cc(c24)C1=O)C(=O)N(CCCN(C)C)C3=O,0.04,3.3,82.5,0.16,4.52,> 10,> 2.2
CN(C)CCCN1C(=O)c2ccc3c4c(c(NCCCn5cc(CO[C@@H]6O[C@H](CO)[C@@H](O[C@H]7O[C@H](CO)[C@@H](O)[C@H](O)[C@H]7O)[C@H](O)[C@H]6O)nn5)cc(c24)C1=O)C(=O)N(CCCN(C)C)C3=O,0.27,4.34,16.1,6.79,,,
CN(C)CCCc1cc2c3c(c(NCCCn4cc(COCCOCCOCCO[C@@H]5O[C@H](CO)[C@@H](O[C@H]6O[C@H](CO)[C@@H](O)[C@H](O)[C@H]6O)[C@H](O)[C@H]5O)nn4)cc4c3c1C(=O)N(CCCN(C)C)C4=O)C(=O)N(CCCN(C)C)C2=O,0.39,> 20,> 51,10.7,,,
CN(C)CCCc1cc2c3c(c(NCCCn4cc(COCCOCCOCCO[C@@H]5O[C@H](CO)[C@@H](O)[C@H](O)[C@H]5O)nn4)cc4c3c1C(=O)N(CCCN(C)C)C4=O)C(=O)N(CCCN(C)C)C2=O,0.35,8.85,25.3,0.27,3.59,> 10,> 2.8
CN(C)CCCc1cc2c3c(c(NCCCn4cc(COCCOCCOCCO[C@@H]5O[C@H](CO)[C@@H](O[C@@H]6O[C@H](CO)[C@H](O)[C@H](O)[C@H]6O)[C@H](O)[C@H]5O)nn4)cc4c3c1C(=O)N(CCCN(C)C)C4=O)C(=O)N(CCCN(C)C)C2=O,0.83,7.04,8.5,8.98,,,
CN(C)CCCN1C(=O)c2ccc3c4c(c(NCCCn5cc(CO[C@@H]6O[C@H](CO)[C@@H](O[C@@H]7O[C@H](CO)[C@H](O)[C@H](O)[C@H]7O)[C@H](O)[C@H]6O)nn5)cc(c24)C1=O)C(=O)N(CCCN(C)C)C3=O,0.37,1.24,3.4,1.03,4.72,9.29,2
CN(C)CCCN1C(=O)c2ccc3c4c(c(NCCCn5cc(CO[C@@H]6O[C@H](CO)[C@@H](O)[C@H](O)[C@H]6O)nn5)cc(c24)C1=O)C(=O)N(CCCN(C)C)C3=O,0.22,0.26,1.2,0.43,0.66,1.44,2.2
CN(C)CCCc1cc2c3c(c(NCCCn4cc(CO[C@H]5O[C@H](CO)[C@@H](O)[C@H](O)[C@@H]5O)nn4)cc4c3c1C(=O)N(CCCN(C)C)C4=O)C(=O)N(CCCN(C)C)C2=O,0.44,6.61,15,0.18,> 5,> 10,
CN(C)CCCc1cc2c3c(c(NCCCn4cc(COCCOCCOCCO[C@H]5O[C@H](CO)[C@@H](O)[C@H](O)[C@@H]5O)nn4)cc4c3c1C(=O)N(CCCN(C)C)C4=O)C(=O)N(CCCN(C)C)C2=O,0.19,6.47,34,4.75,,,
CN(C)CCCc1cc2c3c(c(NCCCn4cc(CCO[C@@H]5O[C@H](CO)[C@@H](O[C@H]6O[C@H](CO)[C@@H](O)[C@H](O)[C@H]6O)[C@H](O)[C@H]5O)nn4)cc4c3c1C(=O)N(CCCN(C)C)C4=O)C(=O)N(CCCN(C)C)C2=O,0.34,11.1,32.7,2.89,,,
CCCNc1cc2c3c(c(CCCN(C)C)cc4c3c1C(=O)N(CCCN(C)C)C4=O)C(=O)N(CCCN(C)C)C2=O,0.003,0.08,26.7,0.74,3.8,,
CN(C)CCCc1cc2c3c(c(NCCCn4cc(CO[C@@H]5O[C@H](CO)[C@@H](O[C@@H]6O[C@H](CO)[C@H](O)[C@H](O)[C@H]6O)[C@H](O)[C@H]5O)nn4)cc4c3c1C(=O)N(CCCN(C)C)C4=O)C(=O)N(CCCN(C)C)C2=O,0.37,6.61,17.9,20.1,,,
CN(C)CCCN1C(=O)c2ccc3c4c(c(NCCCn5cc(COCCOCCOCCO[C@H]6O[C@H](CO)[C@@H](O)[C@H](O)[C@@H]6O)nn5)cc(c24)C1=O)C(=O)N(CCCN(C)C)C3=O,0.13,1.36,10.5,6.12,,,
CN(C)CCCN1C(=O)c2ccc3c4c(c(NCCCn5cc(CCO[C@H]6O[C@H](CO)[C@@H](O)[C@H](O)[C@@H]6O)nn5)cc(c24)C1=O)C(=O)N(CCCN(C)C)C3=O,0.18,0.17,0.9,2.79,,,
CCCNc1cc2c3c(ccc4c3c1C(=O)N(CCCN(C)C)C4=O)C(=O)N(CCCN(C)C)C2=O,0.009,,40,,0.61,3.65,6
CN(C)CCCc1cc2c3c(c(NCCCn4cc(CCO[C@H]5O[C@H](CO)[C@@H](O)[C@H](O)[C@@H]5O)nn4)cc4c3c1C(=O)N(CCCN(C)C)C4=O)C(=O)N(CCCN(C)C)C2=O,0.31,5.15,16.6,1.97,> 5,> 10,
CN(C)CCCN1C(=O)c2ccc3c4c(c(NCCCn5cc(CCO[C@@H]6O[C@H](CO)[C@@H](O[C@@H]7O[C@H](CO)[C@H](O)[C@H](O)[C@H]7O)[C@H](O)[C@H]6O)nn5)cc(c24)C1=O)C(=O)N(CCCN(C)C)C3=O,0.33,1.17,3.5,1.93,4.71,> 10,> 2.1
CN(C)CCCN1C(=O)c2ccc3c4c(c(NCc5cn([C@@H]6O[C@H](CO)[C@@H](O)[C@H](O)[C@H]6O)nn5)cc(c24)C1=O)C(=O)N(CCCN(C)C)C3=O,0.024,,,,3.91,8.1,2.1
CN(C)CCCN1C(=O)c2ccc3c4c(c(NCCCn5cc(CO[C@H]6O[C@H](CO)[C@@H](O)[C@H](O)[C@@H]6O)nn5)cc(c24)C1=O)C(=O)N(CCCN(C)C)C3=O,0.21,0.23,1.1,2.41,0.47,1.78,3.8
CN(C)CCCc1cc2c3c(c(NCCCn4cc(CO[C@@H]5O[C@H](CO)[C@@H](O[C@H]6O[C@H](CO)[C@@H](O)[C@H](O)[C@H]6O)[C@H](O)[C@H]5O)nn4)cc4c3c1C(=O)N(CCCN(C)C)C4=O)C(=O)N(CCCN(C)C)C2=O,0.31,9.56,30.8,11.4,,,
CN(C)CCCc1cc2c3c(c(NCCCn4cc(CCO[C@@H]5O[C@H](CO)[C@@H](O[C@@H]6O[C@H](CO)[C@H](O)[C@H](O)[C@H]6O)[C@H](O)[C@H]5O)nn4)cc4c3c1C(=O)N(CCCN(C)C)C4=O)C(=O)N(CCCN(C)C)C2=O,0.53,7.16,13.5,0.28,> 5,> 10,
CN(C)CCCN1C(=O)c2ccc3c4c(c(NCc5cn(CCO[C@@H]6O[C@H](CO)[C@@H](O)[C@H](O)[C@H]6O)nn5)cc(c24)C1=O)C(=O)N(CCCN(C)C)C3=O,0.017,,,,4.42,8.65,2
CN(C)CCCc1cc2c3c(c(NCCCn4cc(CO[C@@H]5O[C@H](CO)[C@@H](O)[C@H](O)[C@H]5O)nn4)cc4c3c1C(=O)N(CCCN(C)C)C4=O)C(=O)N(CCCN(C)C)C2=O,0.15,0.85,5.7,0.49,2.63,> 10,> 3.8
